Consider seven molecules from publication PMC5358776, “Insight into the mechanism of action of temporin-SHa, a new broad-spectrum antiparasitic and antibacterial agent” (PLoS ONE, 2017).

Values after ≈ are worked out from the molar mass of the structure shown. Where two headings read alike, the source gives them in different places. Where no end group is shown, it is not given here.

Series [1] has as its system L. infantum promastigotes. Briefly: DNA fragmentation, TUNEL assay. The following applies: 50 μM, 48 h. Format: cell-based, Leishmania infantum. On the procedure:
(§1) Mid-log phase L. infantum promastigotes were synchronized at the G1/S border by treating with 10 mM hydroxyurea for 24 h at 26°C [81]. […] Then 400 μl of different concentrations of peptide (12.5, 25 and 50 μM, final concentrations) were added to 1.6 ml of the cell suspension. After 48 h incubation, samples were split into two volumes (2 x 1 ml) to analyze the cell cycle and DNA fragmentation. For cell cycle analysis, the first sample (1 ml) was centrifuged (1,000 x g, 10 min) and 100 μl of HBSS was added to the pellet. Then, 900 μl of cold 70% ethanol was gently added drop-wise for cell fixation. After an overnight incubation at -20°C, cells were washed (16,000 x g, 10 min, 4°C) with HBSS and resuspended in 1 ml of HBSS containing 100 μg of RNase A (Sigma-Aldrich) and 5 μg of propidium iodide. After 30 min of incubation at 37°C, samples were passed 5 times through a sterile plastic syringe fitted with a 27 gauge needle and analyzed by flow cytometry (FACSCalibur). For DNA fragmentation analysis, a TUNEL assay was performed on the second 1 ml sample. […] DNA strand breaks were detected by the addition of biotinylated nucleotides to the free 3′-hydroxyl ends of the DNA fragments using TdT (terminal deoxynucleotidyl transferase) and tagged with a streptavidin-FITC conjugate for subsequent detection by flow cytometry. […]

Series [2] relates to L. infantum promastigotes. In words: Cell cycle analysis, sub-G1 phase. Format: cell-based, Leishmania infantum. Conditions: 50 μM, 48 h. On the procedure:
as §1

Series [3] deals with E. coli ATCC 25922. In words: Multipassage resistance selection. Format: cell-based, Escherichia coli. Conditions: for fold increase in the MIC against control bacteria at the end of the selection: lineages grown without antimicrobial agent, passage 55.
For series [4], the system named is Gram-negative and Gram-positive bacteria and yeasts/fungi. In words: MIC, whole panel of strains. The following applies: for MIC: against all strains. Format: cell-based.
Series [5] concerns E. coli ATCC 25922. Conditions: ATCC 25922.
Protocol: (§2) Listeria ivanovii Li4pVS2 (kindly provided by Jean-Marc Berjeaud, Université de Poitiers, France), and Streptococcus pyogenes ATCC 19615 (ATCC) were cultured in brain heart infusion (BHI, Sigma-Aldrich) medium under the same conditions.
(§3) Activity against bacteria and yeasts was assessed with a liquid growth inhibition assay performed in 96-well microtitration plates, according to a previously described protocol [14], using mid-logarithmic phase cultures diluted in Mueller-Hinton (MH, Dominique Dutscher) broth (LB broth for E. faecalis strain and YPD medium for yeasts/fungi) to an A630 value of 0.01 (10^6 cfu/ml) and 2-fold serial dilutions of synthetic temporin (200–1 μM, final concentrations). The minimal inhibitory concentration (MIC) was determined as the mean value of three independent experiments, each performed in triplicate with negative (H2O) and positive (0.7% formaldehyde) controls.
A further series has as its system E. coli ML-35p. The following applies: MH broth, 10^6 cfu/ml; mean of 3 independent experiments in triplicate.
The next series deals with P. aeruginosa ATCC 27853. Conditions: ATCC 27853.
The subject of series [6] is S. enterica (serotype Enteritidis). Conditions: serotype Enteritidis.
Protocol: as §3
The next series relates to A. baumannii ATCC 19606. The following applies: ATCC 19606.
A further series has as its system K. pneumoniae ATCC 13883. The following applies: ATCC 13883.
The subject of the next series is S. aureus ATCC 25923. Conditions: ATCC 25923.
The test system of the next series is S. aureus ST1065. Conditions: ST1065.
The test system of another series is E. faecalis ATCC 29212. The following applies: ATCC 29212.
Another series concerns C. albicans ATCC 90028. Conditions: ATCC 90028, 96 h.
For series [7], the system named is C. parapsilosis ATCC 22019. Conditions: ATCC 22019, 96 h.
Protocol: (§4) Candida albicans ATCC 90028, Candida parapsilosis ATCC 22019 (ATCC), and Saccharomyces cerevisiae (laboratory collection) were cultured in yeast peptone dextrose (YPD, Sigma-Aldrich) medium at 30°C.
(§5) The minimal inhibitory concentration (MIC) was determined as the mean value of three independent experiments, each performed in triplicate with negative (H2O) and positive (0.7% formaldehyde) controls.
A further series relates to S. cerevisiae. The following applies: 96 h.
The subject of the next series is Rat erythrocytes. Conditions: 1 h.
Another series relates to S. pyogenes ATCC 19615. Conditions: ATCC 19615.
The test system of another series is Human erythrocytes. Conditions: 1 h.
Another series concerns Human THP-1 monocytes. Conditions: 72 h.
The subject of a further series is Human HepG2. Conditions: MTT, 72 h, 37°C, 50–600 μM; mean of 3 independent experiments in triplicate.
The subject of another series is S. aureus ATCC 43300. The following applies: strain resistant to methicillin and oxacillin; MH broth, 10^6 cfu/ml; mean of 3 independent experiments in triplicate.
A further series deals with S. aureus ATCC BAA-44. Conditions: ATCC BAA-44.
In a further series the test system is Gram-negative bacteria. The following applies: 6 Gram-negative strains of Table 3.
In the next series the test system is Gram-positive bacteria. The following applies: 7 Gram-positive strains of Table 3.
The test system of series [8] is L. infantum (antimony resistant) promastigotes. Conditions: antimony-resistant parasites.
Protocol: (§6) Antiparasitic activity was evaluated against trypanosomatids, such as Leishmania and Trypanosoma. Antileishmanial activity was determined either by a luminescence-based assay (L. infantum, L. major and L. braziliensis) or by cell counting (FACSCalibur flow cytometer, Becton-Dickinson Biosciences, Woburn, MA, USA) after staining with propidium iodide (L. tropica and L. amazonensis), as previously described [23], using promastigotes or axenic amastigotes (1.25 x 10^6 parasites/ml) in mid-log phase and 5-fold serial dilutions of synthetic temporin (50–3.1 μM, final concentrations). Antitrypanosomal activity against T. brucei gambiense and T. cruzi was assessed by cell counting, similar to the L. tropica and L. amazonensis analysis, after incubation of the parasites (96 h for T. brucei gambiense and 120 h for T. cruzi) with the synthetic temporin, as previously described [23]. The half maximal inhibitory concentration (IC50) value was determined with GraphPad Prism 6.0 software (GraphPad Software, La Jolla, CA, USA) using a sigmoidal dose response (variable slope) curve fitting equation. The results are expressed as the means of three independent experiments performed in triplicate (luminescence-based assays) or in duplicate (cell counting-based assays).
In the next series the test system is L. major promastigotes. Conditions: promastigotes, 96 h.
The subject of series [9] is L. braziliensis promastigotes. Conditions: 96 h.
Protocol: (§7) L. infantum axenic amastigotes were differentiated from promastigotes in MAA medium (supplemented with 20% FCS) and were grown at 37°C in 5% CO2 [23].
(§8) Antiparasitic activity was evaluated against trypanosomatids, such as Leishmania and Trypanosoma. Antileishmanial activity was determined either by a luminescence-based assay (L. infantum, L. major and L. braziliensis) or by cell counting (FACSCalibur flow cytometer, Becton-Dickinson Biosciences, Woburn, MA, USA) after staining with propidium iodide (L. tropica and L. amazonensis), as previously described [23], using promastigotes or axenic amastigotes (1.25 x 10^6 parasites/ml) in mid-log phase and 5-fold serial dilutions of synthetic temporin (50–3.1 μM, final concentrations). […] The half maximal inhibitory concentration (IC50) value was determined with GraphPad Prism 6.0 software (GraphPad Software, La Jolla, CA, USA) using a sigmoidal dose response (variable slope) curve fitting equation. The results are expressed as the means of three independent experiments performed in triplicate (luminescence-based assays) or in duplicate (cell counting-based assays).
For series [10], the system named is L. amazonensis promastigotes. The following applies: promastigotes, 96 h.
Protocol: as §7, §8
In series [11] the test system is L. infantum (axenic) amastigotes. Conditions: axenic) amastigotes, 96 h.
Protocol: as §7, §8
Series [12] has as its system L. infantum (intramacrophagic) amastigotes in THP-1-derived macrophages. The following applies: intramacrophagic) amastigotes in THP-1-derived macrophages, 24 h.
Protocol: Leishmania infantum (strain MHOM/MA/67/ITMAP-263), Leishmania major (strain MHOM/SU/73/5-ASKH), Leishmania tropica (strain MHOM/SU/74/SAFK27), Leishmania amazonensis (strain MHOM/BR/73/M2269), and Leishmania braziliensis (strain MHOM/BR/75/M2904) promastigotes (kindly provided by Francine Pratlong, Centre National de Référence des Leishmania, Montpellier, France) were cultured at 26°C in SDM-79 medium supplemented with 10% fetal calf serum (FCS, Gibco) [23]. […] L. infantum-infected human macrophages were obtained from human THP-1 monocytes, as previously described [23, 78].
Intramacrophagic leishmanicidal activity of the peptides was assessed by incubating L. infantum-infected human macrophages with 2-fold serial dilutions of peptide (50–2.5 μM, final concentrations) for 4 days, as previously described [23]. THP-1-derived macrophages were infected with promastigotes from late log phase at a density of 5 x 10^5 cells/well (ratio 10:1) in RPMI medium for 24 h at 37°C with 5% CO2. […] The results are expressed as the means of two experiments performed with six replicates.
The next series relates to T. brucei gambiense. Conditions: gambiense, 96 h.
For another series, the system named is T. cruzi epimastigotes. Conditions: epimastigotes, 120 h.
In another series the test system is Human fibroblasts (HFF). Conditions: 72 h.
The subject of series [13] is promastigotes of several species of Leishmania. Conditions: 96 h.
Protocol: as §6
For series [14], the system named is Human THP-1-derived macrophages. Briefly: Cytotoxicity, Trypan blue staining. Conditions: 1–100 μM, mean of 3 independent experiments, six replicates.
Protocol: (§9) Hemolytic assays were also performed using erythrocytes obtained from fresh blood samples of Wistar male rats (Charles River Laboratories, France). The hemolytic activity was measured by incubating the peptide (1–200 μM, final concentrations) with erythrocytes (2 x 10^7 cells) in PBS (100 μl) for 1 h at 37°C, as previously described [23]. A parallel incubation in the presence of 0.1% (v/v) Triton-X100 was carried out to determine the absorbance associated with 100% hemolysis. […] For THP-1-derived macrophages, viability was determined by Trypan blue staining after incubation with peptide (1–100 μM, final concentrations). LC50 (average concentration of the peptide producing 50% cell lysis) and IC50 values were determined with GraphPad Prism 6.0 software and correspond to the mean obtained from three independent experiments carried out with three (erythrocytes, THP-1 monocytes, HepG2 and HFF cells) or six replicates (THP-1-derived macrophages).
(§10) IC50 or LC50 values were determined for the different human cells mentioned above in the cytotoxicity assays.
For series [15], the system named is L. infantum promastigotes. Conditions: promastigotes, 96 h.
Protocol: as §7, §8

Protocol for A. baumannii ATCC 19606: as §3
Protocol for C. albicans ATCC 90028: as §4, §5
Protocol for E. coli ML-35p: as §2, §3
Protocol for E. faecalis ATCC 29212: as §2, §3
Protocol for Human erythrocytes: as §9, §10
Protocol for K. pneumoniae ATCC 13883: as §3
Protocol for L. ivanovii: as §2, §3
Protocol for L. major promastigotes: as §7, §8
Protocol for P. aeruginosa ATCC 27853: as §2, §3
Protocol for Rat erythrocytes: as §9, §10
Protocol for S. aureus ATCC 25923: as §3
Protocol for S. aureus ATCC 43300: as §2, §3
Protocol for S. aureus ST1065: as §3
Protocol for S. cerevisiae: as §4, §5
Protocol for S. pyogenes ATCC 19615: as §2, §3
Protocol for T. brucei gambiense: as §6
Protocol for T. cruzi epimastigotes: as §6

For the molecule `CCCCCCCCCCCCCCCCOP(=O)([O-])OCC[N+](C)(C)C` [Miltefosine, hexadecylphosphocholine], the “DNA fragmentation (FITC-positive cells)” value in series [1] is listed as “approximately 65%”. For the same molecule, the “Sub-G1 phase (% of cells)” value is on record as 29.1 % of cells in series [2] and 29 % of cells in series [2] (listed as miltefosine).
As usually defined, the MIC is the least concentration at which growth counts as inhibited. As for `CC1(C)S[C@@H]2[C@H](NC(=O)[C@H](N)c3ccccc3)C(=O)N2[C@H]1C(=O)O` [ampicillin], in the series with E. coli ATCC 25922 [3] (Escherichia coli, ATCC25922, read-out: MIC (initial, before selection)), the MIC turned out to be 12.5 µM (≈ 4.37 µg/mL). Besides, the “fold increase in the MIC against adapted E. coli lineages” value in the series with E. coli ATCC 25922 [3] (lineages adapted from MIC/16 to MIC, 55 passages) is given as 6 fold. The “fold increase in the MIC against control bacteria at the end of the selection” value in the series on E. coli ATCC 25922 [3] is on record as 4 fold.
On to D-temporin-SHa [D-SHa], for which, in the series with E. coli ATCC 25922 [3], the “fold increase in the MIC against control bacteria at the end of the selection” value is approximately 2 fold.
The term LC50 denotes the concentration lethal to half of the exposed cells or organisms. Lower therefore signals greater toxicity. “FAKGIAGMAGKLF-NH2 [[A^2,6,9, K^3]SHa, [A^2,6,9, K^3]temporin-SHa]”: the MIC (in series [4]; with E. coli ATCC 25922 [5]; against E. coli ML-35p; with P. aeruginosa ATCC 27853; in series [6]; in the series with A. baumannii ATCC 19606) was more than 200 µM in each case. Besides, the MIC against K. pneumoniae ATCC 13883, with S. aureus ATCC 25923, in the series with S. aureus ST1065, in the series on L. ivanovii, in the series with E. faecalis ATCC 29212 and in the series on C. albicans ATCC 90028 was more than 200 µM throughout. The MIC (in series [7]; against S. cerevisiae) was more than 200 µM each time. In the series on Rat erythrocytes, this molecule returned an LC50 of more than 200 µM.
The IC50 is the midpoint of a concentration-inhibition curve. Regarding “FASGIAGMAGKLF-NH2 [[A^2,6,9]SHa, [A^2,6,9]temporin-SHa]”, the MIC (in [4]; against E. coli ATCC 25922 [5]; in the series on E. coli ML-35p; against P. aeruginosa ATCC 27853; in series [6]; against A. baumannii ATCC 19606) was more than 200 µM each time. The MIC with K. pneumoniae ATCC 13883, against S. aureus ATCC 25923, against S. aureus ST1065, in the series with S. pyogenes ATCC 19615, in the series with L. ivanovii and against E. faecalis ATCC 29212 was more than 200 µM each time. Moreover, the MIC (against C. albicans ATCC 90028; in series [7]; with S. cerevisiae) was more than 200 µM throughout. In addition, the results for the LC50 in the series on Rat erythrocytes and in the series on Human erythrocytes were more than 200 µM and more than 100 µM, respectively. Moreover, the IC50 in the series with Human THP-1 monocytes was more than 60 µM; in the series with Human HepG2, more than 600 µM.
On to “FLKGIVGMLGKLF-NH2 [[K^3]SHa, [K^3]temporin-SHa]”, for which the figures for the “MIC (range over strains)” value (in series [4] (all the tested bacteria); in the series with Yeasts/fungi (yeasts/fungi)) were 1 to 6 µM and 3 to 25 µM, respectively. The MIC in the series on E. coli ATCC 25922 [5] was 3 µM; with E. coli ML-35p, 3 µM; against P. aeruginosa ATCC 27853, 6 µM; in [6], 6 µM; with A. baumannii ATCC 19606 it was 3 µM; in the series with K. pneumoniae ATCC 13883, 3 µM. Besides, the minimal inhibitory concentration (MIC) against S. aureus ATCC 25923 was found to be 3 µM; in the series with S. aureus ST1065, 3 µM; against S. aureus ATCC 43300, 3 µM; against S. aureus ATCC BAA-44 it was 3 µM; in the series on S. pyogenes ATCC 19615 it was 1 µM; in the series on L. ivanovii, 3 µM. Further, the MIC was 6 µM with E. faecalis ATCC 29212, 6 µM in the series on C. albicans ATCC 90028, 25 µM in series [7] and 3 µM against S. cerevisiae. Besides, the entries for the “MICGM (geometric mean of the MIC values)” value in the series with Gram-negative bacteria, in the series with Gram-positive bacteria and in the series on Yeasts/fungi (3 yeast/fungal strains of Table 3) were 3.8 µM, 2.8 µM and 7.7 µM, respectively. Besides, the half-maximal inhibitory concentration (IC50) in series [8] was 9 µM; in the series with L. major promastigotes it was 10 µM; in series [9] it was 5 µM; in series [10], 8 µM; in [11] it was 20 µM; in [12] it was 5 µM. The 50% inhibitory concentration (IC50) in the series on T. brucei gambiense is 16 µM; in the series on T. cruzi epimastigotes, 10 µM; with Human THP-1 monocytes, 48 µM; with Human HepG2, 358 µM; in the series with Human fibroblasts (HFF), more than 100 µM; in series [13], 5 to 10 µM. Moreover, the 50% lethal concentration (LC50) worked out at 26 µM with Rat erythrocytes, 50 µM in the series with Human erythrocytes and 55 µM in series [14].
Take “GLWSKIKEVGKEAAKAAAKAAGKAALGAVSEAV-NH2 (C-terminus assumed) [dermaseptin B2, reference compound]”: the IC50 in [15] is 2.5 µM; in the series with Human THP-1 monocytes it was approximately 7 µM.
